Measured values published in the supplement of paper PMC10883282.

Key:
Assay in all cases: relative viability vs DMSO control (72 h) (fraction); higher = more viable cells
[1] = test system: SYO-1
Outline: (§1)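 Sarcoma cell lines in 384-well plates, seeded to reach 80–90% confluence, were given compound after 24 h and kept 72 h at 37 °C, 5% CO2, with 0.1% DMSO vehicle and a 5 µM positive control. Relative viability came from ATPLite as percent growth, averaged over up to triplicate wells. On the rescaled values, 1 equals full and 0 equals none.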

[2] = test system: HT1080
Outline: as §1

[3] = test system: KHOS-NP
Outline: as §1

[4] = test system: VA-ES-BJ
Outline: as §1

[5] = test system: SK-LMS-1
Outline: as §1

[6] = test system: A204
Outline: as §1

[7] = test system: HS729
Outline: as §1

[8] = test system: SW684
Outline: as §1

[9] = test system: SW872
Outline: as §1

[10] = test system: SW1353
Outline: as §1

[11] = test system: MES-SA
Outline: as §1

[12] = test system: G401
Outline: as §1

Cc1ccc(C(=O)OCc2ccc([C@@H](CN)C(=O)Nc3ccc4cnccc4c3)cc2)c(C)c1 [Netarsudil]
Settings	relative viability
[1], 0.00017 µM	0.953
[1], 0.00051 µM	0.962
[1], 0.00152 µM	0.952
[1], 0.00457 µM	0.953
[1], 0.01372 µM	0.923
[1], 0.04115 µM	0.874
[1], 0.1235 µM	0.828
[1], 0.3704 µM	0.756
[1], 1.111 µM	0.691
[1], 3.333 µM	0.636
[1], 10 µM	-0.0088
[2], 0.00017 µM	1.03
[2], 0.00051 µM	1.02
[2], 0.00152 µM	1.043
[2], 0.00457 µM	0.994
[2], 0.01372 µM	1.03
[2], 0.04115 µM	1.01
[2], 0.1235 µM	1.03
[2], 0.3704 µM	1.04
[2], 1.111 µM	1.03
[2], 3.333 µM	1.02
[2], 10 µM	0.0118
[3], 0.00017 µM	1.03
[3], 0.00051 µM	1.06
[3], 0.00152 µM	1.03
[3], 0.00457 µM	1.05
[3], 0.01372 µM	1.03
[3], 0.04115 µM	1.03
[3], 0.1235 µM	1
[3], 0.3704 µM	0.997
[3], 1.111 µM	0.968
[3], 3.333 µM	0.986
[3], 10 µM	0.0142
[4], 0.00017 µM	1.02
[4], 0.00051 µM	1
[4], 0.00152 µM	0.998
[4], 0.00457 µM	1.02
[4], 0.01372 µM	1.01
[4], 0.04115 µM	0.991
[4], 0.1235 µM	0.99
[4], 0.3704 µM	0.998
[4], 1.111 µM	1.03
[4], 3.333 µM	1.03
[4], 10 µM	0.659
[5], 0.00017 µM	1.03
[5], 0.00051 µM	1.05
[5], 0.00152 µM	1.02
[5], 0.00457 µM	1
[5], 0.01372 µM	1.043
[5], 0.04115 µM	1.03
[5], 0.1235 µM	1.07
[5], 0.3704 µM	0.989
[5], 1.111 µM	0.799
[5], 3.333 µM	0.574
[5], 10 µM	0.0101
[6], 0.00017 µM	1.03
[6], 0.00051 µM	1.05
[6], 0.00152 µM	1.04
[6], 0.00457 µM	1.03
[6], 0.01372 µM	1.01
[6], 0.04115 µM	0.963
[6], 0.1235 µM	0.841
[6], 0.3704 µM	0.82
[6], 1.111 µM	0.703
[6], 3.333 µM	0.609
[6], 10 µM	0.00737
[7], 0.00017 µM	0.874
[7], 0.00051 µM	0.85
[7], 0.00152 µM	0.899
[7], 0.00457 µM	0.852
[7], 0.01372 µM	0.87
[7], 0.04115 µM	0.896
[7], 0.1235 µM	0.876
[7], 0.3704 µM	0.844
[7], 1.111 µM	0.812
[7], 3.333 µM	0.8113
[7], 10 µM	0.224
[8], 0.00017 µM	1.12
[8], 0.00051 µM	1.1
[8], 0.00152 µM	1.11
[8], 0.00457 µM	1.11
[8], 0.01372 µM	1.09
[8], 0.04115 µM	1.076
[8], 0.1235 µM	0.991
[8], 0.3704 µM	0.8806
[8], 1.111 µM	0.884
[8], 3.333 µM	0.805
[8], 10 µM	-0.0136
[9], 0.00017 µM	0.997
[9], 0.00051 µM	1.01
[9], 0.00152 µM	1.01
[9], 0.00457 µM	0.988
[9], 0.01372 µM	1.01
[9], 0.04115 µM	0.955
[9], 0.1235 µM	0.961
[9], 0.3704 µM	0.82
[9], 1.111 µM	0.74
[9], 3.333 µM	0.637
[9], 10 µM	0.000233
[10], 0.00017 µM	0.939
[10], 0.00051 µM	0.945
[10], 0.00152 µM	0.946
[10], 0.00457 µM	0.944
[10], 0.01372 µM	0.926
[10], 0.04115 µM	0.946
[10], 0.1235 µM	0.898
[10], 0.3704 µM	0.7532
[10], 1.111 µM	0.628
[10], 3.333 µM	0.553
[10], 10 µM	0.0095
[11], 0.00017 µM	0.89
[11], 0.00051 µM	0.901
[11], 0.00152 µM	0.892
[11], 0.00457 µM	0.905
[11], 0.01372 µM	0.921
[11], 0.04115 µM	0.884
[11], 0.1235 µM	0.85
[11], 0.3704 µM	0.775
[11], 1.111 µM	0.672
[11], 3.333 µM	0.402
[11], 10 µM	0.00233
[12], 0.00017 µM	0.956
[12], 0.00051 µM	0.985
[12], 0.00152 µM	0.977
[12], 0.00457 µM	0.996
[12], 0.01372 µM	0.9802
[12], 0.04115 µM	0.957
[12], 0.1235 µM	0.968
[12], 0.3704 µM	0.973
[12], 1.111 µM	0.941
[12], 3.333 µM	0.946
[12], 10 µM	0.00503

CCCS(=O)(=O)N[C@H]1C[C@@H](N(C)c2ncnc3[nH]ccc23)C1 [Abrocitinib]
Settings	relative viability
[1], 0.00017 µM	0.984
[1], 0.00051 µM	0.951
[1], 0.00152 µM	0.956
[1], 0.00457 µM	0.972
[1], 0.01372 µM	0.952
[1], 0.04115 µM	0.957
[1], 0.1235 µM	0.974
[1], 0.3704 µM	0.959
[1], 1.111 µM	0.993
[1], 3.333 µM	0.994
[1], 10 µM	1.01
[2], 0.00017 µM	1.026
[2], 0.00051 µM	1.02
[2], 0.00152 µM	1.046
[2], 0.00457 µM	1.022
[2], 0.01372 µM	1.05
[2], 0.04115 µM	1.05
[2], 0.1235 µM	1.026
[2], 0.3704 µM	1.04
[2], 1.111 µM	1.021
[2], 3.333 µM	1.03
[2], 10 µM	1.05
[3], 0.00017 µM	1.05
[3], 0.00051 µM	1.04
[3], 0.00152 µM	1.04
[3], 0.00457 µM	1.05
[3], 0.01372 µM	1.05
[3], 0.04115 µM	1.04
[3], 0.1235 µM	1.06
[3], 0.3704 µM	1.04
[3], 1.111 µM	1.05
[3], 3.333 µM	1.04
[3], 10 µM	1.039
[4], 0.00017 µM	1.02
[4], 0.00051 µM	1.02
[4], 0.00152 µM	1
[4], 0.00457 µM	1.03
[4], 0.01372 µM	1.02
[4], 0.04115 µM	1.05
[4], 0.1235 µM	1.03
[4], 0.3704 µM	1.05
[4], 1.111 µM	1.06
[4], 3.333 µM	1.03
[4], 10 µM	1.01
[5], 0.00017 µM	1
[5], 0.00051 µM	1.03
[5], 0.00152 µM	1.01
[5], 0.00457 µM	1.02
[5], 0.01372 µM	1.04
[5], 0.04115 µM	1.04
[5], 0.1235 µM	0.992
[5], 0.3704 µM	1.01
[5], 1.111 µM	1.01
[5], 3.333 µM	1.02
[5], 10 µM	1.02
[6], 0.00017 µM	1.07
[6], 0.00051 µM	1.06
[6], 0.00152 µM	1.07
[6], 0.00457 µM	1.06
[6], 0.01372 µM	1.07
[6], 0.04115 µM	1.07
[6], 0.1235 µM	1.07
[6], 0.3704 µM	1.07
[6], 1.111 µM	1.03
[6], 3.333 µM	1.01
[6], 10 µM	0.949
[7], 0.00017 µM	0.926
[7], 0.00051 µM	0.935
[7], 0.00152 µM	0.937
[7], 0.00457 µM	0.951
[7], 0.01372 µM	0.94
[7], 0.04115 µM	0.95
[7], 0.1235 µM	0.909
[7], 0.3704 µM	0.91
[7], 1.111 µM	0.941
[7], 3.333 µM	0.8836
[7], 10 µM	0.892
[8], 0.00017 µM	1.11
[8], 0.00051 µM	1.12
[8], 0.00152 µM	1.12
[8], 0.00457 µM	1.15
[8], 0.01372 µM	1.12
[8], 0.04115 µM	1.13
[8], 0.1235 µM	1.14
[8], 0.3704 µM	1.16
[8], 1.111 µM	1.11
[8], 3.333 µM	1.09
[8], 10 µM	1.08
[9], 0.00017 µM	0.993
[9], 0.00051 µM	0.995
[9], 0.00152 µM	0.991
[9], 0.00457 µM	1
[9], 0.01372 µM	1.01
[9], 0.04115 µM	1.03
[9], 0.1235 µM	1.02
[9], 0.3704 µM	1.02
[9], 1.111 µM	1.03
[9], 3.333 µM	1.01
[9], 10 µM	1
[10], 0.00017 µM	0.96
[10], 0.00051 µM	0.966
[10], 0.00152 µM	0.929
[10], 0.00457 µM	0.96
[10], 0.01372 µM	1
[10], 0.04115 µM	0.9632
[10], 0.1235 µM	0.977
[10], 0.3704 µM	0.999
[10], 1.111 µM	0.958
[10], 3.333 µM	0.991
[10], 10 µM	0.996
[11], 0.00017 µM	0.929
[11], 0.00051 µM	0.904
[11], 0.00152 µM	0.9
[11], 0.00457 µM	0.9254
[11], 0.01372 µM	0.917
[11], 0.04115 µM	0.932
[11], 0.1235 µM	0.922
[11], 0.3704 µM	0.942
[11], 1.111 µM	0.912
[11], 3.333 µM	0.933
[11], 10 µM	0.893
[12], 0.00017 µM	1
[12], 0.00051 µM	0.981
[12], 0.00152 µM	0.994
[12], 0.00457 µM	1.04
[12], 0.01372 µM	1.01
[12], 0.04115 µM	0.981
[12], 0.1235 µM	0.984
[12], 0.3704 µM	1.01
[12], 1.111 µM	1.01
[12], 3.333 µM	0.956
[12], 10 µM	0.915
